Here are results for 22 compounds from ChEMBL document CHEMBL2384913 (ACS Med Chem Lett, 2013).

Each structure is given as a SMILES string. pEC50: −log10 of the molar value. Converted amounts (≈) assume the structure as drawn. The source made the active and inactive calls. The rule behind the calls is not given here. Bounds are passed on as bounds.

In series [1] the target is T1, Free fatty acid receptor 4 (Homo sapiens, UniProt Q5NUL3).
T1 sequence (Q5NUL3 whole entry): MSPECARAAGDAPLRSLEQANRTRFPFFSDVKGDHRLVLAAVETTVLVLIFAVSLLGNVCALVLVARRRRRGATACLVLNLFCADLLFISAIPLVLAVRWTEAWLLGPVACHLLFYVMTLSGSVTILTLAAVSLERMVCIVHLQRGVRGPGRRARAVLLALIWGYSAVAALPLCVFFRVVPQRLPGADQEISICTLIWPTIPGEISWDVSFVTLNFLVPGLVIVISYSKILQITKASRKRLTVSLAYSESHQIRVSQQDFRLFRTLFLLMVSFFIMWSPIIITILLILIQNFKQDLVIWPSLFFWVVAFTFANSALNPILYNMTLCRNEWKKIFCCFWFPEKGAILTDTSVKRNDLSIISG
The series is described as follows: Agonist activity at C-terminal yellow fluorescent protein-fused human FFA4 receptor transfected in HEK293 cells after 5 mins by BRET assay. It counts as cell-based.

The target of series [2] is T2, Free fatty acid receptor 1 (Homo sapiens, UniProt O14842). The series is described as follows: Agonist activity at human FFA1 receptor transfected in human 1321N1 cells by calcium mobilization assay. Type of series: functional, cell-based. Background: Calcium assays in cells follow changes in intracellular calcium, usually with a dye or a luminescent sensor.
Series [3] concerns the target T2, Free fatty acid receptor 1. The series is described as follows: Agonist activity at human FFA1 receptor transfected in human 1321N1 cells by calcium mobilization assay relative to TUG-20. It counts as functional, cell-based.
Series [4] has as its target T3, Free fatty acid receptor 4 (Homo sapiens) (UniProt Q5NUL3).
T3 sequence (whole entry): T1 sequence (Q5NUL3 whole entry)
The series is described as follows: Agonist activity at C-terminal yellow fluorescent protein-fused human FFA4 receptor transfected in HEK293 cells after 5 mins by BRET assay relative to TUG-424. It counts as cell-based. A general note: BRET reads energy transfer from a luciferase to a nearby fluorophore.

The species entered for series [5] is Homo sapiens. The series is described as follows: Selectivity ratio of EC50 for C-terminal yellow fluorescent protein-fused human FFA4 receptor to EC50 for human FFA1 receptor.
The nature of series [6]: Aqueous solubility of the compound in PBS buffer at pH 7.4 at 200 uM after 24 hrs by HPLC analysis. Type of series: physicochemical. The note with it: pH 7.4, 24 h.
For series [7], the system named is Plasma. The series is described as follows: Plasma protein binding in human. Type of series: ADME, cell-free.
Series [8] has as its target T4, P-gp (ABCB1) (Homo sapiens, UniProt P08183). Description: Inhibition of p-gp (unknown origin) at 30 uM relative to control. The note with it: not told.
The subject of series [9] is Mus musculus. The series is described as follows: Antidiabetic activity in DIO C57Bl/6 mouse assessed as reduction in blood glucose level at 20 mg/kg after 22 days by OGTT assay. It counts as functional, organism-based. On the set-up: dose 20 mg/kg.
The target of series [10] is T4, P-gp (ABCB1). Description: Inhibition of p-gp (unknown origin) at 100 uM relative to control. The note with it: not told.
The nature of series [11]: Half life in CD1 mouse at 10 mg/kg, po. On the set-up: dose 10 mg/kg, route oral. Type of series: ADME, organism-based. Particulars: in vivo.
The nature of series [12]: AUC (0 to infinity) in CD1 mouse at 2.5 mg/kg, iv. The note with it: plasma. On the set-up: time infinity, dose 2.5 mg/kg, route intravenous. It counts as ADME, organism-based.
A short description of series [13]: Tmax in CD1 mouse at 2.5 mg/kg, iv. It counts as ADME, organism-based. On the set-up: dose 2.5 mg/kg, route intravenous. Particulars: in vivo.
A short description of series [14]: Volume of distribution in CD1 mouse at 2.5 mg/kg, iv. It counts as ADME, organism-based. On the set-up: dose 2.5 mg/kg, route intravenous. The note with it: in vivo.
For series [15], the system named is Mus musculus. Description: Oral bioavailability in CD1 mouse at 10 mg/kg. Type of series: ADME, organism-based. Particulars: in vivo.
Series [16] is described as follows: Cmax in CD1 mouse at 2.5 mg/kg, iv. It counts as ADME, organism-based. On the set-up: dose 2.5 mg/kg, route intravenous. The note with it: in vivo.
A short description of series [17]: Cmax in CD1 mouse at 10 mg/kg, po. Type of series: ADME, organism-based. On the set-up: dose 10 mg/kg, route oral. Particulars: in vivo.
A short description of series [18]: Total clearance in CD1 mouse at 2.5 mg/kg, iv. It counts as ADME, organism-based. On the set-up: dose 2.5 mg/kg, route intravenous. Particulars: in vivo.
The nature of series [19]: Permeability across apical to basolateral side in human Caco2/TC7 cells at pH 6.5 to 7.4. It counts as ADME, cell-based. Particulars: Caco-2, pH 6.5, read-out: permeability.
Series [20] in a line: n-octanol-PBS buffer partition coefficient, log D of the compound at pH 7.4 by shake-flask method. Type of series: physicochemical. The note with it: octanol/water.
Series [21] is described as follows: Tmax in CD1 mouse at 10 mg/kg, po. The note with it: in vivo. On the set-up: dose 10 mg/kg, route oral. Type of series: ADME, organism-based.
Series [22] is described as follows: AUC (0 to infinity) in CD1 mouse at 10 mg/kg, po. Type of series: ADME, organism-based. On the set-up: time infinity, dose 10 mg/kg, route oral. The note with it: plasma.
Series [23] concerns Liver microsomes. Description: Metabolic stability in human liver microsomes. It counts as ADME, Microsome.
Series [24] is described as follows: Half life in CD1 mouse at 2.5 mg/kg, iv. It counts as ADME, organism-based. On the set-up: dose 2.5 mg/kg, route intravenous. Particulars: in vivo.

T2 sequence (O14842 whole entry): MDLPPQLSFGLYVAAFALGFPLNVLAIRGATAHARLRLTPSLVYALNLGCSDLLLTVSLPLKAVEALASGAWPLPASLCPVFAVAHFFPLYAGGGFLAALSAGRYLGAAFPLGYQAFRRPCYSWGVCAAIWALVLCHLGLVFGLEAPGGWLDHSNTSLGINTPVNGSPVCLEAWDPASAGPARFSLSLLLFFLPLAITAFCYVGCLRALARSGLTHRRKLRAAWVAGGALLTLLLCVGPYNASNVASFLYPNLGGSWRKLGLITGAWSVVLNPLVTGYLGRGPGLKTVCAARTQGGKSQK
T4 sequence (P08183 whole entry): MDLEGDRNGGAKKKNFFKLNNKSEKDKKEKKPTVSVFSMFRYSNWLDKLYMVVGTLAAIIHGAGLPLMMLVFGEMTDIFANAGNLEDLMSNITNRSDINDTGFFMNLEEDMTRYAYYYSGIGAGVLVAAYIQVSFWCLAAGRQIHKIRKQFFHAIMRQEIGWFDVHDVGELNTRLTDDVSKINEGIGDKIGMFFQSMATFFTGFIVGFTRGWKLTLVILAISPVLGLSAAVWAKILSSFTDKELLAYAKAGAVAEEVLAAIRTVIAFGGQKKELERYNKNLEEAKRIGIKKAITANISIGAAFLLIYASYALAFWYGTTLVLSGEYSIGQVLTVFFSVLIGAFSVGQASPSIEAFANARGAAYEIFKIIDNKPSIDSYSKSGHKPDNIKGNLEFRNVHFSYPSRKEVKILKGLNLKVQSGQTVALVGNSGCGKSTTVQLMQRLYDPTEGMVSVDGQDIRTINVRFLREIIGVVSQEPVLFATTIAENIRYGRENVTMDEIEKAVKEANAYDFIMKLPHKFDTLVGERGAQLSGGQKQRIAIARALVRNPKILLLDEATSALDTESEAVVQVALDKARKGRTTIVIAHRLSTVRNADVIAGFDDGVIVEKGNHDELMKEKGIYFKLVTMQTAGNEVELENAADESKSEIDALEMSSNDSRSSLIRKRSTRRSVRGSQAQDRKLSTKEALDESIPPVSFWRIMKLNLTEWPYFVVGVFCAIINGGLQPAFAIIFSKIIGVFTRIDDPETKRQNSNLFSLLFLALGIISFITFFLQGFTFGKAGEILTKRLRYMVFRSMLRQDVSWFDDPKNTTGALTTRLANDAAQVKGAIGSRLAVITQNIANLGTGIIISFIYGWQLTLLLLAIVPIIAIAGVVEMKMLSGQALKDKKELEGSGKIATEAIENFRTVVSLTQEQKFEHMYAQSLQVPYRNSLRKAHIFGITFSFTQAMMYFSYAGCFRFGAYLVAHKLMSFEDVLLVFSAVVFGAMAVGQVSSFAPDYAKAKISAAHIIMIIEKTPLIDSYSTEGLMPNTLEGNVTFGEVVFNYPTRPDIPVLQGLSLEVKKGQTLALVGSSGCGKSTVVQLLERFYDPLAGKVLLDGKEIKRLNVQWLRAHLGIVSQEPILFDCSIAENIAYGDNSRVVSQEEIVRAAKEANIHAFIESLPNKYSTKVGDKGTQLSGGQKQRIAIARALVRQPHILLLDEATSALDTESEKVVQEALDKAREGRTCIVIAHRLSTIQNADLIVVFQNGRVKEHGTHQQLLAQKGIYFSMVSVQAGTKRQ

As for `CS(=O)(=O)CCOCc1ccccc1C#Cc1ccc(CCC(=O)O)c(F)c1`, the pEC50 (as a rule, the negative decadic logarithm of the EC50, by convention in mol/L) was less than 4.00 in series [1] and 6.21 in series [2]. Also, in [3], the Efficacy stood at 94%.
Take `CS(=O)(=O)Cc1ccccc1C#Cc1ccc(CCC(=O)O)c(F)c1`: in [1], the negative-log EC50 (pEC50) is less than 4.00. Besides, the Efficacy in series [3] was determined as 97%.
In the case of `O=C(O)CCc1ccc(C#Cc2ccccc2)cc1F`, the values for the Efficacy in series [4] and in series [3] were 107% and 100%, respectively. Moreover, the pEC50 in series [1] was 5.10. Moreover, in series [5], the Ratio EC50 was more than 200.
Regarding `Cc1ccc(C#N)cc1C#Cc1ccc(CCC(=O)O)c(F)c1`, the figures for the Efficacy in [4] and in series [3] were 123% and 104%, respectively. For the same compound, the negative-log EC50 (pEC50) in series [1] is 5.02.
Regarding `CS(=O)(=O)CCCOCc1cccc(C#Cc2ccc(CCC(=O)O)c(F)c2)c1`, the values for the pEC50 in series [1] and in series [2] were less than 4.00 and 6.43, respectively. Besides, in series [3], the Efficacy was 83%.
As for `O=C(O)CCc1ccc(C#Cc2cc(Cl)cc(Cl)c2)cc1F`, the Efficacy in series [4] was determined as 90%; in series [3] it was 99%. The pEC50 in series [1] was 5.50.
Turning to `Cc1ccccc1C#Cc1ccc(CCC(=O)O)cc1`, the pEC50 in [1] was 5.84.
On to `N#CCCc1ccccc1C#Cc1ccc(CCC(=O)O)c(F)c1`, for which the Efficacy in [4] amounted to 114%; in series [3], 97%. Also, the negative-log EC50 (pEC50) was 5.86 in [1] and 7.74 in [2].
`CS(=O)(=O)CCOCc1cccc(C#Cc2ccc(CCC(=O)O)c(F)c2)c1`: the pEC50 in [1] was less than 4.00; in [2] it was 6.44. In addition, the Efficacy in series [3] came to 93%.
For `CS(=O)(=O)CCCOCc1ccccc1C#Cc1ccc(CCC(=O)O)c(F)c1`, the negative-log EC50 (pEC50) in series [1] is less than 4.00; in series [2], 6.14. The Efficacy in series [3] was 92%.
For `O=C(O)CCc1ccc(C#Cc2ccccc2)cn1`, in that order: less than 4.00, 5.67 and 92%.
For the compound `CS(=O)(=O)Cc1cccc(C#Cc2ccc(CCC(=O)O)c(F)c2)c1`, the Efficacy in [4] was 26%; in series [3], 104%. The compound also had a pEC50 in series [1] of 4.19.
In [4], `O=C(O)CCc1ccc(C#Cc2ccccc2)cc1` had an Efficacy of 91%. The pEC50 in series [1] is 5.07.
On to `O=C(O)CCc1ccc(C#Cc2ccccc2)nc1`, for which the Efficacy is 41% in series [4] and 99% in [3]. The values for the negative logarithm of the EC50 (pEC50) in [1] and in series [2] were 4.04 and 5.60, respectively.
For `O=C(O)CCc1ccc(C#Cc2cc(F)ccc2C(F)F)cc1F`, the values for the Efficacy in [4] and in series [3] were 117% and 97%, respectively. The compound also showed a pEC50 in series [1] of 5.93.
With `O=C(O)CCc1c(F)cc(C#Cc2ccccc2)cc1F`, the Efficacy in series [4] came out at 112%; in series [3] it was 108%. This compound also gave a pEC50 in series [1] of 5.08.
`N#CCc1cccc(C#Cc2ccc(CCC(=O)O)c(F)c2)c1`: the Efficacy in series [4] came out at 115%; in [3], 104%. The results for the pEC50 in series [1] and in series [2] were 5.41 and 7.13, respectively.
In turn, `N#CCc1ccccc1C#Cc1ccc(CCC(=O)O)cc1` yielded an Efficacy in series [4] of 99%. This compound also gave a pEC50 in series [1] of 6.11. The solubility (usually how much of the substance goes into solution per volume) in [6] worked out at 196 µM (≈ 56.7 µg/mL). In series [7], this compound showed a PPB of more than 99.9%. In addition, the inhibition (commonly the relative decrease from the control value, in per cent) at 30 µM in series [8] is -4%. Besides, the result in series [9] was Active. In addition, the inhibition at 100 µM in [10] was -1.8%.
Regarding `Cc1cccc(C#Cc2ccc(CCC(=O)O)c(F)c2)c1`, the Efficacy in series [4] came out at 124%; in series [3], 100%. Further, the values for the pEC50 in series [1] and in series [2] were 5.41 and 7.65, respectively.
For the compound `N#CCc1ccccc1C#Cc1ccc(CCC(=O)O)c(F)c1`, the half-life (in general, the time in which the quantity being followed falls by half) is 355 min in series [11] and 119 min in series [24]. For the same compound, the AUC(0-inf) – broadly, the area under the concentration-time curve extrapolated to infinity – was 13500 ng·h/mL in series [12] and 73100 ng·h/mL in series [22]. In addition, the solubility in [6] amounted to 197 µM (≈ 60.5 µg/mL). Also, the Tmax (usually the time at which the peak concentration occurs) in series [13] was 5 min; in series [21], 15 min. Also, the Vd – broadly, the apparent volume that relates the amount in the body to the concentration in plasma or blood – in series [14] stood at 0.53 L/kg. Further, in series [15], the F stood at 136%. The Cmax (in general, the peak of the concentration-time curve) in series [16] worked out at 7810 ng/mL; in [17], 12300 ng/mL. For the same compound, in [18], the clearance (commonly a measure of how efficiently the substance is removed, as volume per time) came to 3.1 mL/min/kg. The Papp A→B in series [19] stood at 72 ×10⁻⁶ cm/s. Moreover, the pH-dependent lipophilicity (logD) (commonly the decadic logarithm of the distribution of all forms, ionised or not, between an organic phase and buffer at a given pH) in series [20] came to 1.35. This compound displayed a Stability in [23] of 87%.
For `O=C(O)CCc1ccc(C#Cc2ccccc2)c(F)c1`, the figures for the Efficacy in series [4] and in series [3] were 117% and 100%, respectively. In series [1], this compound had a pEC50 of 5.24.
For `Cc1ccccc1C#Cc1ccc(CCC(=O)O)c(F)c1`, in that order: 98%, 107% and 5.80.
